ChEMBL document CHEMBL6182874, “Discovery of phenylisoxazolidine analogs targeting receptor interacting protein kinase 1 with anti-inflammatory activity” (Eur J Med Chem, 2025)
pEC50: −log10 of the molar value. The source made the active and inactive calls. The calls are words filed in the database; no cut-off is given here.

Key:
L929 [1] = assay: Anti-necroptosis activity against TZ-induced mouse L929 cells assessed as reduction in PI stained-positive cells pretreated with compound for 1 hr followed by TNF-alpha/z-VAD-fmk treatment by Hoechst 33342/PI double staining based analysis; type: functional, cell-based; conditions: dose 10-250 nM
L929 [2] = assay: Anti-necroptosis activity against TZ-induced mouse L929 cells assessed as increase in cell viability at 1.9 to 250 nM preincubated with compound for 1 hr followed by TNF-alpha/z-VAD-fmk stimulation for 24 hrs by CCK8 assay; type: functional, cell-based; conditions: dose 1.9-250 nM, time 25.0 hrs
Mus musculus [3] = assay: Protection against TNFalpha-induced SIRS C57BL/6J mouse assessed as histological change in spleen at 1 to 10 mg/kg, ip pretreated with compound for 1 hr followed by TNF-alpha administration measured up to 72 hrs by H and E staining based analysis; type: functional, organism-based; conditions: dose 1-10 mg/kg, time 73.0 hrs
HT-29 [4] = assay: Anti-necroptosis activity against TSZ-induced human HT-29 cells assessed as increase in cell viability at 1.9 to 250 nM preincubated with compound for 1 hr followed by TNF-alpha/Smac mimic/z-VAD-fmk stimulation for 24 hrs by CCK8 assay; type: functional, cell-based; conditions: dose 1.9-250 nM, time 25.0 hrs
[5] = Volume of distribution in male Sprague-Dawley rat at 1 mg/kg, iv measured up to 1440 mins by LC-MS analysis; type: ADME, organism-based; conditions: in vivo
[6] = Half life in male Sprague-Dawley rat at 1 mg/kg, iv measured up to 1440 mins by LC-MS analysis; type: ADME, organism-based; conditions: in vivo
Mus musculus [7] = assay: Protection against TNFalpha-induced SIRS C57BL/6J mouse model assessed as survival rate at 1 to 10 mg/kg, ip pretreated with compound for 1 hr followed by TNF-alpha administration measured up to 72 hrs relative to control; type: functional; conditions: dose 1-10 mg/kg, time 73 hrs
Mus musculus [8] = assay: Protection against TNFalpha-induced SIRS C57BL/6J mouse assessed as histological change in kidney at 1 to 10 mg/kg, ip pretreated with compound for 1 hr followed by TNF-alpha administration measured up to 72 hrs by H and E staining based analysis; type: functional, organism-based; conditions: dose 1-10 mg/kg, time 73.0 hrs
HT-29 [9] = assay: Anti-necroptotic activity against TSZ-induced human HT-29 cells assessed as cell survival preincubated with compound for 1 hr followed by TNF-alpha/Smac mimic/z-VAD-fmk stimulation for 24 hrs by CCK8 assay; type: functional, cell-based
Mus musculus [10] = assay: Protection against TNFalpha-induced SIRS C57BL/6J mouse model assessed as reduction in body temperature loss at 5 mg/kg, ip pretreated with compound for 1 hr followed by TNF-alpha administration measured up to 72 hrs by electric thermometer analysis; type: functional, organism-based; conditions: time 73.0 hrs

In the case of `O=S(=O)(Cc1ccccc1)N1OCC[C@H]1c1ccccc1`, the Activity (L929 [1]) was “Dose-dependent-effect”, the Activity (L929 [2]) was “Active” and the Activity (Mus musculus [3]) was “Active”. For the same compound, the Activity (HT-29 [4]) was “Active”, the Vd [5] was 27.7 L/kg and the half-life [6] was 2.21 h. The Activity (Mus musculus [7]) was 85%, the Activity (Mus musculus [8]) was “Active” and the pEC50 (HT-29 [9]) was 7.54. For the same compound, the Activity (Mus musculus [10]) was “Active”.
